{"source": "paper PMC4669708", "about": "(Cell Death & Disease, 2015)", "experiment_in_all_cases": "c-ponatinib pulldown LC-MS/MS", "format_in_all_cases": "binding", "key": {"MLKL": {"target": "T1, MLKL (Homo sapiens, UniProt Q8NB16)", "T1 sequence (Q8NB16 1-471)": "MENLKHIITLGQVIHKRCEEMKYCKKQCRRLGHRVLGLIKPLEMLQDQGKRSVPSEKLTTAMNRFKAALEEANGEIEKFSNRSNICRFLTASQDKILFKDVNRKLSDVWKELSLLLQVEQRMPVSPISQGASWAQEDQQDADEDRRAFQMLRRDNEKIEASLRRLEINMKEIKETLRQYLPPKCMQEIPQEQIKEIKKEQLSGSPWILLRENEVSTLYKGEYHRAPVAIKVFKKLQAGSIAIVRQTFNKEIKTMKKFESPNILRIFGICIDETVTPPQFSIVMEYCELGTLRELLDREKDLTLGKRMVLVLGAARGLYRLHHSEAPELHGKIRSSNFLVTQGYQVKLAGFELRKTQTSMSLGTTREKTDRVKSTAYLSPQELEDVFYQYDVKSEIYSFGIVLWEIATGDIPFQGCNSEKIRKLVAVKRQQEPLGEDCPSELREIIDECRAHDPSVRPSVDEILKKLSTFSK", "method": "(§1) Drug-affinity matrices were prepared as described previously.[51] In brief, 25 nmol of c-ponatinib were immobilized on 50 μl NHS-activated Sepharose 4 Fast Flow beads (GE Healthcare Bio-Sciences AB, Uppsala, Sweden). 10 mg whole cell lysate was used as protein input per replicate. Affinity chromatography and elution were performed in duplicate. After elution, the enriched proteins were reduced with dithiothreitol (DTT) and cysteine residues were alkylated by incubation with iodoacetamide. The samples were digested with modified porcine trypsin (Promega). Five percent of the digested eluates were purified and concentrated by C18 reversed-phase material. Subsequently, samples were analyzed in duplicates by gel-free one-dimensional LCMS.\n(§2) Precursor and MS/MS peaks were extracted from the RAW files and saved in the MGF format using msconvert tool (ProteoWizard Library v2.1.2708, www.proteowizard.sourceforge.net) for subsequent protein identification. An initial database search was performed with broader mass tolerance and conservative score threshold to re-calibrate the mass lists for optimal final protein identification. For the initial protein database search, Mascot (www.matrixscience.com, v2.3.02) was used. Error tolerances on the precursor and fragment ions were ±10 p.p.m. and ±0.6 Da, respectively, and the database search limited to fully-tryptic peptides with maximum one missed cleavage, carbamidomethyl cysteine and methionine oxidation set as fixed and variable modifications, respectively. The Mascot peptide ion score threshold was set to 30, and at least three peptide identifications per protein were required. Searches were performed against the human UniProtKB/SwissProt database (www.uniprot.org release 2013.01) including all protein isoforms. The initial peptide identifications were used to deduce independent linear transformations for precursor and fragment masses that would minimize the mean square deviation of measured masses from theoretical. Re-calibrated mass list files were searched against the same human protein database by a combination of Mascot and Phenyx (GeneBio SA, Geneva, Switzerland; version 2.5.14) search engines using narrower mass tolerances (±4 p.p.m. and ±0.3 Da). One missed tryptic cleavage site was allowed. Carbamidomethyl cysteine was set as a fixed modification and oxidized methionine was set as a variable modification. To validate the proteins, Mascot and Phenyx output files were processed by internally developed parsers. Proteins with ≥2 unique peptides above a score T1, or with a single peptide above a score T2 were selected as unambiguous identifications. Additional peptides for these validated proteins with score >T3 were also accepted. For Mascot searches, the following thresholds were used: T1=14, T2=40 and T3=10; Phenyx thresholds were set to 4.2, 4.75 and 3.5, respectively (P-value<10^−3). The validated proteins retrieved by the two algorithms were merged, any spectral conflicts discarded and grouped according to shared peptides. A false discovery rate of <1% for protein identifications and <0.1% for peptides (including the ones exported with lower scores) was determined by applying the same procedure against a database of reversed protein sequences. […] In addition to Mascot protein scores that were proposed as an estimate of protein abundance by the original algorithm, the modified version also included Phenyx protein scores and spectral counts. The algorithm first estimated three measure-specific P-values for each putative interaction, and, in contrast to,[69] P-value calculation utilized the quantiles of the measurements rather than the original data. The Fisher's method was used to combine the three resulting P-values into a single P-value for drug–protein interaction specificity. We have also correlated interaction P-values with the magnitude of competition effect represented by the fold reduction of spectral counts on free compound competition. […]"}, "YWHAH": {"target": "T2, YWHAH (Homo sapiens, UniProt Q04917)", "T2 sequence (Q04917 1-246)": "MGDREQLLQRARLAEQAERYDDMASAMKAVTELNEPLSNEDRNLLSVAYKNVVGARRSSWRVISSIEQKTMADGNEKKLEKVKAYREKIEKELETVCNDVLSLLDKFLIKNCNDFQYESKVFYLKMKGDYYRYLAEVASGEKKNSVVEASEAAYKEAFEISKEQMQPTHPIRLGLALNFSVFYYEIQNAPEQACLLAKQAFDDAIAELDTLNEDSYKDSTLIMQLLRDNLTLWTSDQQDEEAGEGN", "method": "as §1, §2"}, "MAP4K2": {"target": "T3, MAP4K2 (Homo sapiens, UniProt Q12851)", "T3 sequence (Q12851 1-820)": "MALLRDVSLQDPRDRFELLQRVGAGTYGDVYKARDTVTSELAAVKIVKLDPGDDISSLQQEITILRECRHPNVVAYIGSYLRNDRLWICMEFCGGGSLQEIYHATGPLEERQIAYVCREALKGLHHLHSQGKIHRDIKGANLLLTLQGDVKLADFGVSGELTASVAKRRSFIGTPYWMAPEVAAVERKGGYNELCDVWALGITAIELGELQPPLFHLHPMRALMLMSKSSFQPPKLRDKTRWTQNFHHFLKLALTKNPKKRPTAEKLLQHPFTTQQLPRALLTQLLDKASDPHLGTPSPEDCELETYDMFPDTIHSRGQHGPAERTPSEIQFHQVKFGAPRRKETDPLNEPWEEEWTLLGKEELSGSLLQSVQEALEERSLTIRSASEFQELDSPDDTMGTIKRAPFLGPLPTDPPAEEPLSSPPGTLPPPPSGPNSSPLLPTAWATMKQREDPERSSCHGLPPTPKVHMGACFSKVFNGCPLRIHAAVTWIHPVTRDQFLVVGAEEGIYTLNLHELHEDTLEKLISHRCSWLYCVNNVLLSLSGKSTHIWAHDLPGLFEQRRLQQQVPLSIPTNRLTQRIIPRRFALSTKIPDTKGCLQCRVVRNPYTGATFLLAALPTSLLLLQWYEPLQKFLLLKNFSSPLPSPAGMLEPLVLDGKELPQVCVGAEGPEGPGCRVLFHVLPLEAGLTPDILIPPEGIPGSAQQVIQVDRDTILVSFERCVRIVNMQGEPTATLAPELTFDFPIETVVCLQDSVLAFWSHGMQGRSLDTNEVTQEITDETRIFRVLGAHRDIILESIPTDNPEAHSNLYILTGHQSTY", "method": "as §1, §2"}}, "data": [{"molecule": "Cc1ccc(C(=O)Nc2ccc(CN3CCN(CCCN)CC3)c(C(F)(F)F)c2)cc1C#Cc1cnc2cccnn12", "note": "[c-ponatinib]", "values": [{"measurement": "Av. SC comp.", "setting": "MLKL; + free ponatinib", "value": 0}, {"measurement": "Total SC comp.", "setting": "MLKL; + free ponatinib", "value": 0}, {"measurement": "Av. SC", "setting": "MLKL; no competitor", "value": 5}, {"measurement": "Total SC", "setting": "MLKL; no competitor", "value": 20}, {"measurement": "Av. SC comp.", "setting": "YWHAH; + free ponatinib", "value": 0.25}, {"measurement": "Total SC comp.", "setting": "YWHAH; + free ponatinib", "value": 1}, {"measurement": "Av. SC", "setting": "YWHAH; no competitor", "value": 6}, {"measurement": "Total SC", "setting": "YWHAH; no competitor", "value": 24}, {"measurement": "Av. SC comp.", "setting": "MAP4K2; + free ponatinib", "value": 0}, {"measurement": "Total SC comp.", "setting": "MAP4K2; + free ponatinib", "value": 0}, {"measurement": "Av. SC", "setting": "MAP4K2; no competitor", "value": 2.5}, {"measurement": "Total SC", "setting": "MAP4K2; no competitor", "value": 10}]}]}
